# Data published in ChEMBL document CHEMBL1777694, “Quinazolinedione sulfonamides: a novel class of competitive AMPA receptor antagonists with oral activity” (Bioorg Med Chem Lett, 2011).
# Calls of active or inactive are those of the source. The rule behind the calls is not given here.
# How the values were obtained:
# Rattus norvegicus [1] = organism: Rattus norvegicus; assay: Inhibition of AMPA receptor in rat brain homogenate at 100 uM; assay type: tissue-based
# [2] = molecular target: T1, Glutamate NMDA receptor (Rattus norvegicus) (UniProt P35439+Q00959+Q00960+Q00961+Q62645+Q8VHN2+Q9R1M7); assay: Inhibition of NMDA receptor glycine site in rat brain homogenate at 100 uM; assay type: tissue-based
# [3] = molecular target: T1, Glutamate NMDA receptor (Rattus norvegicus); assay: Inhibition of NMDA receptor glycine site in rat brain homogenate at 10 uM; assay type: tissue-based
# [4] = Displacement of [3H]CNQX from AMPA receptor in rat brain homogenate; assay type: tissue-based
# Rattus norvegicus [5] = organism: Rattus norvegicus; assay: Inhibition of AMPA receptor in rat brain homogenate at 10 uM; assay type: tissue-based
# Glutamate NMDA receptor = assay: Displacement of [3H]MDL105519 from NMDA receptor glycine site in rat brain homogenate; assay type: tissue-based
# Mus musculus [6] = assay: Anticonvulsant activity in po dosed OF1 mouse assessed as inhibition of electroshock-induced seizures administered 1 hr before electroshock challenge; assay type: functional
# [7] = molecular target: Glutamate receptor 2 (Homo sapiens) (UniProt P42262); assay: Binding affinity to human GluA2 by X-ray crystallography
# Mus musculus [8] = assay: Anticonvulsant activity in po dosed DBA2 mouse assessed as inhibition of sound-induced seizures; assay type: functional, organism-based
# Mus musculus [9] = assay: Anticonvulsant activity in OF1 mouse assessed as inhibition of electroshock-induced seizures at 30 mg/kg, ip administered 1 hr before electroshock challenge; assay type: functional; conditions: route intraperitoneal
# Mus musculus [10] = assay: Anticonvulsant activity in OF1 mouse assessed as inhibition of electroshock-induced seizures at 30 mg/kg, po administered 1 hr before electroshock challenge; assay type: functional
# [11] = Dissociation constant, pKa of the compound; assay type: physicochemical
# Sequence of Glutamate receptor 2 (Homo sapiens) (P42262 whole entry): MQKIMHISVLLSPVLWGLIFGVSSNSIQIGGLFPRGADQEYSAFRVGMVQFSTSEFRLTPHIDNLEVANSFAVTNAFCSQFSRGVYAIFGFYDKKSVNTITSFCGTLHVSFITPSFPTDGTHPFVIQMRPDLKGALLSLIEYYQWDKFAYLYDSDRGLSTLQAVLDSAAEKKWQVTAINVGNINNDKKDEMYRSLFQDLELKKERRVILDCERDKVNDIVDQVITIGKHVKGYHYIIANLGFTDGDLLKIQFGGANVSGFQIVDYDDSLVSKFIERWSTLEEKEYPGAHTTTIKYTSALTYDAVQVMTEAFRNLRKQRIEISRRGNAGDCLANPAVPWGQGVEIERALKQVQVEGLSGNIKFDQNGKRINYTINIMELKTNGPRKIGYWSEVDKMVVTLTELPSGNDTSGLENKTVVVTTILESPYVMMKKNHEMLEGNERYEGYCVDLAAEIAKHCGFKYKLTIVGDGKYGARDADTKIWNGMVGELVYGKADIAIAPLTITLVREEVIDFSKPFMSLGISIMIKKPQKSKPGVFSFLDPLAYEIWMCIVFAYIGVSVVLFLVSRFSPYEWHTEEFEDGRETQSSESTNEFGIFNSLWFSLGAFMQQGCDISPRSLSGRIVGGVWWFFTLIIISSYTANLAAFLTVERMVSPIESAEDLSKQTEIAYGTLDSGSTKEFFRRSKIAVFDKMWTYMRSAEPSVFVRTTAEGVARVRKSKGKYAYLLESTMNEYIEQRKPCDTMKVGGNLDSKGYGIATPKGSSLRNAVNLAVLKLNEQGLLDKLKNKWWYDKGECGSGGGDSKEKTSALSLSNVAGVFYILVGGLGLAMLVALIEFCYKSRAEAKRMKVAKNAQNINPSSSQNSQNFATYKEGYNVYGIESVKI
SMILES,inhibition [3] [%],IC50 [4] [µM],other results
Cn1c(=O)n(NS(C)(=O)=O)c(=O)c2ccc(Cl)cc21,,,inhibition (Rattus norvegicus [1]): 45%; inhibition [2]: 36%
CS(=O)(=O)Nn1c(=O)[nH]c2cc(C#N)ccc2c1=O,28,0.75,
CS(=O)(=O)Nn1c(=O)[nH]c2cc(-c3ccccc3)ccc2c1=O,,,inhibition (Rattus norvegicus [5]): 36%; inhibition [2]: 36%
CS(=O)(=O)Nn1c(=O)[nH]c2cc(C3CCCC3)ccc2c1=O,,,inhibition (Rattus norvegicus [5]): 25%
CS(=O)(=O)Nn1c(=O)[nH]c2cc([N+](=O)[O-])ccc2c1=O,16,1.2,
C=Cc1ccc2c(=O)n(NS(C)(=O)=O)c(=O)[nH]c2c1,,1.9,IC50 (Glutamate NMDA receptor): > 10 µM
CN(n1c(=O)[nH]c2cc(Cl)ccc2c1=O)S(C)(=O)=O,,,inhibition (Rattus norvegicus [1]): 12%; inhibition [2]: 18%
CC(C)(C)c1ccc2c(=O)n(NS(C)(=O)=O)c(=O)[nH]c2c1,,4.9,ED50 (Mus musculus [6]): 29.5 mg/kg; IC50 (Glutamate NMDA receptor): > 100 µM
CS(=O)(=O)Nn1c(=O)[nH]c2cc([N+](=O)[O-])c(-n3ccnc3)cc2c1=O,24,0.082,inhibition (Mus musculus [6]): inactive; Activity [7]: Active; inhibition (Mus musculus [8]): inactive; inhibition in vivo at 30 mg/kg (Mus musculus [9]): 40%
CS(=O)(=O)Nn1c(=O)[nH]c2cc(Cl)c(-n3ccnc3)cc2c1=O,,0.52,IC50 (Glutamate NMDA receptor): 17.2 µM
CS(=O)(=O)Nn1c(=O)[nH]c2cc(CCc3ccccc3)ccc2c1=O,26,1.1,
CS(=O)(=O)Nn1c(=O)[nH]c2cc(C(F)(F)F)ccc2c1=O,13,0.92,ED50 (Mus musculus [6]): 54 mg/kg; IC50 (Glutamate NMDA receptor): 17.8 µM
CS(=O)(=O)Nn1c(=O)[nH]c2c(Cl)cccc2c1=O,,> 100,inhibition [2]: 37%
CS(=O)(=O)Nn1c(=O)[nH]c2cc(Br)ccc2c1=O,49,2.2,
CS(=O)(=O)Nn1c(=O)[nH]c2cccc(Cl)c2c1=O,,29,inhibition [2]: 34%
CS(=O)(=O)Nn1c(=O)[nH]c2cc(S(C)(=O)=O)ccc2c1=O,,,inhibition (Rattus norvegicus [5]): 42%; IC50 (Glutamate NMDA receptor): > 100 µM
O=c1[nH]c2cc(Cl)ccc2c(=O)n1NS(=O)(=O)Cc1ccccc1,,2.9,IC50 (Glutamate NMDA receptor): 0.21 µM
CS(=O)(=O)Nn1c(=O)[nH]c2cc(C(=O)O)ccc2c1=O,,,inhibition (Rattus norvegicus [5]): 0%
O=c1[nH]c2cc(Cl)ccc2c(=O)n1NS(=O)(=O)c1ccccc1,,4.9,IC50 (Glutamate NMDA receptor): 9.3 µM
Cc1ccc2c(=O)n(NS(C)(=O)=O)c(=O)[nH]c2c1,13,9.7,ED50 (Mus musculus [6]): 9 mg/kg
COc1ccc2c(=O)n(NS(C)(=O)=O)c(=O)[nH]c2c1,22,3.7,inhibition in vivo at 30 mg/kg (Mus musculus [10]): 60%
CS(=O)(=O)Nn1c(=O)[nH]c2ccc(Cl)cc2c1=O,,34,inhibition [2]: 50%
Cn1cnc(S(=O)(=O)Nn2c(=O)[nH]c3cc(Cl)ccc3c2=O)c1,,1.6,
CS(=O)(=O)Nn1c(=O)[nH]c2ccccc2c1=O,,57,inhibition [2]: 48%
CCc1ccc2c(=O)n(NS(C)(=O)=O)c(=O)[nH]c2c1,,3,ED50 (Mus musculus [6]): 16 mg/kg
CCS(=O)(=O)Nn1c(=O)[nH]c2cc(Cl)ccc2c1=O,,2.3,IC50 (Glutamate NMDA receptor): 35 µM
CS(=O)(=O)Nn1c(=O)[nH]c2cc(F)ccc2c1=O,17,8.2,
CS(=O)(=O)Nn1c(=O)[nH]c2cc(Cl)ccc2c1=O,32,2.4,ED50 (Mus musculus [6]): 23 mg/kg; pKa [11]: 6.9
